Earlier results as cited in patent US10980856B2, “Composition and method for treating plantar fasciitis in humans” (priority 2017, dated 2021).

Assays:
[1] = system: human peripheral blood monocytes; conditions: after 40 hours
[2] = system: Balb/c mice injected with histamine; conditions: applied immediately after histamine injection

Q: Which results are given for CC1=CCC(O)(C(C)C)CC1 (stereo not shown) [terpinen-4-ol]?
A: superoxide production by agonist-stimulated monocytes (monocytes): suppress; inhibition of lipopolysaccharide-induced production of IL-10 [1]: 50%; inhibition of lipopolysaccharide-induced production of TNF-α [1]: 50%; inhibition of lipopolysaccharide-induced production of interleukin-1b (IL-1b) [1]: 50%; inhibition of lipopolysaccharide-induced production of prostaglandin E2 [1]: 30%; histamine-induced skin edema [2]: reduced

Q: With CC1=CC[C@@H](C(C)(C)O)CC1 [a-terpineol] as the compound, how does the “superoxide production by agonist-stimulated monocytes” value (monocytes) read?
A: Its value is “suppress”.
